Results on 32 compounds are retold here after patent publication US11639353B2, “Cyclobutanes- and azetidine-containing mono and spirocyclic compounds as αV integrin inhibitors” (BRISTOL-MYERS SQUIBB COMPANY, priority 2016, dated 2023).

Structures can show the parent of a compound that is named as a salt.

The test has as its target T1, human αVβ6 (Homo sapiens, UniProt P06756+P18564).
T1 construct: purchased R & D systems 3817-AV
The test can be described thus: human αVβ6 HTRF binding assay. Conditions: alternatively SPA-based assay. The procedure:
All binding assays used the HTRF (homogeneous time resolved fluorescence) technology from Cisbio International, therefore all assays are described as HTRF binding assays. The assay results for the Examples are listed above together with the characterization data. The HTRF binding assays are established for the following integrins: human αVβ6, human αVβ1, human αVβ3, human αVβ5, and human αVβ8. All assays used the following assay buffer: 20 mM Tris, pH 7.4, 1 mM MgCl2, 1 mM MnCl2, 0.01% Tween 20, and 0.01% BSA. Alternatively, a SPA-based assay was used for evaluation of receptor binding.
The following describes the components and a representative procedure for the human αVβ6 HTRF binding assay: Recombinant human αVβ6 Integrin (R & D systems, 3817-AV) was biotinylated. Biotinylated human αVβ6 Integrin was added to assay vessel at a final concentration of 1.25 nM. FITC-conjugated fibronectin (Cytoskeleton, FNR02) was then added at the final concentration of 5 nM. The mixture was centrifuged at 600 rpm for three minutes using Thermo Fisher Heraeus Multifuge X3 centrifuge and then incubated at RT for an hour. Streptavidin Terbium (Cisbio international 610STLB) was then added at the final concentration of 0.625 nM. The resulting mixture was centrifuged at 600 rpm for three minutes using Thermo Fisher Heraeus Multifuge X3 centrifuge and then incubated at room temperature overnight in dark before reading HTRF signals.
The SPA-based assay was carried out according to the protocol and procedures similar to the ones described in the following reference with appropriate modifications to agents and ligands which are readily understood by one skilled in the art: Pachter J A, Zhang R, Mayer-Ezell R., “Scintillation proximity assay to measure binding of soluble fibronectin to antibody-captured αVβ1 integrin” Anal Biochem. 1995 Sep. 1; 230(1):101-7.

T1 sequence (P06756 31-992 limits assumed): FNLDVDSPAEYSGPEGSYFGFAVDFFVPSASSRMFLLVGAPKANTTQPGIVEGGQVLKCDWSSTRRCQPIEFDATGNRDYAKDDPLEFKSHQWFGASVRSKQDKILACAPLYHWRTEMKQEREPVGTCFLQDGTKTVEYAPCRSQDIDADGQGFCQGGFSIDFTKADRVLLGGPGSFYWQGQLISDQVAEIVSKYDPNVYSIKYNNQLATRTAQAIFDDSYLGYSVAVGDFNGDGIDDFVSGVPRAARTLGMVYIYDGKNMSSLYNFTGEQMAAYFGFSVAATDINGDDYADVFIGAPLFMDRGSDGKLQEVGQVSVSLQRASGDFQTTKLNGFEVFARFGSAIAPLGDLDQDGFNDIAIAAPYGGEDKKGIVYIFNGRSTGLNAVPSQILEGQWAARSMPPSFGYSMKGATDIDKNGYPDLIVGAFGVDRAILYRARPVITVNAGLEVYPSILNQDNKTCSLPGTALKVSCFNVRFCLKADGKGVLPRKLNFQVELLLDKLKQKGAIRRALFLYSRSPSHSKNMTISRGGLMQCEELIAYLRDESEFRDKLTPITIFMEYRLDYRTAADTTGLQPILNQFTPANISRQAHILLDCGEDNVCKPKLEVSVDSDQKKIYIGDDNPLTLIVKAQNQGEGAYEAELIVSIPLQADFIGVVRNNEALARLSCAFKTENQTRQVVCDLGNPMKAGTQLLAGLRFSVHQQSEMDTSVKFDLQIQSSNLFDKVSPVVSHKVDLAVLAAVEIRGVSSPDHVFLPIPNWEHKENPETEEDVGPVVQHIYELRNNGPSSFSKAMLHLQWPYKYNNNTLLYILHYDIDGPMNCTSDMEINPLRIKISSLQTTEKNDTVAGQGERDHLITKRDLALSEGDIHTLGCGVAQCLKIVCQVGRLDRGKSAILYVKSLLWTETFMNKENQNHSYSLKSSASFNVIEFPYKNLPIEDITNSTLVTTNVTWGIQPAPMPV
T1 sequence (P18564 22-707 limits assumed): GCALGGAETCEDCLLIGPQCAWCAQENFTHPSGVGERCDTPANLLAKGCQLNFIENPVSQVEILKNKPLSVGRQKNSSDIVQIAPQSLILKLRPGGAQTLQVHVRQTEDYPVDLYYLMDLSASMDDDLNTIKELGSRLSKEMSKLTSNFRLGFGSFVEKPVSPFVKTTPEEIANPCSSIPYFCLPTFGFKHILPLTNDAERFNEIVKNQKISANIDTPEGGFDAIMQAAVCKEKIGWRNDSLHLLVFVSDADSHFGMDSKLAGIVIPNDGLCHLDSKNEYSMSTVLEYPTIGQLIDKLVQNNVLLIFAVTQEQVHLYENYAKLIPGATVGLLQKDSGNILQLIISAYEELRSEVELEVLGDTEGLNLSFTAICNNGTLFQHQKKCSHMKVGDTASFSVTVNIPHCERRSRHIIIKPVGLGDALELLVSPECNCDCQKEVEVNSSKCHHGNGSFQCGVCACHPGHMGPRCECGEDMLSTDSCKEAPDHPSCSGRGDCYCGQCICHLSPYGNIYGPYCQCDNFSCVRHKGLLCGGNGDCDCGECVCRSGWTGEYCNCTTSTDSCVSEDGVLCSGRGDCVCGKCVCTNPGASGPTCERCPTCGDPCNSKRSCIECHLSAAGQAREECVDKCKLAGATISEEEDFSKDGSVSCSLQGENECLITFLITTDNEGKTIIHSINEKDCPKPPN

Compound `COc1ccc([C@H](CC(=O)O)NC(=O)C2CC3(CC(CCc4ccc5c(n4)NCCC5)C3)C2)cn1` (mixture of isomers) [Example 50] came in with a 50% inhibitory concentration (IC50) of 110 nM. The compound `O=C(N[C@@H](CNC(=O)[C@H]1C[C@@H](Cc2ccc3c(n2)NCCC3)C1)C(=O)O)OCc1cccc(F)c1` (relative stereo) [Example 197] came in with a 50% inhibitory concentration (IC50) of 197 nM. With `COc1ccc([C@H](CC(=O)O)C2(F)CN(C(=O)CCCc3ccc4c(n3)NCCC4)C2)cn1` (single isomer, unassigned) [Example 17] the figure was 29 nM; with `COc1ccc([C@@H](CC(=O)O)C2(F)CN(C(=O)CCCc3ccc4c(n3)NCCC4)C2)cn1` (single isomer, unassigned) [Example 18], 170 nM; with `COc1ccc([C@H](CC(=O)O)N2CC(C)(CCCCc3ccc4c(n3)NCCC4)C2=O)cn1` (single isomer, unassigned) [Example 177], 448 nM. Turning to `COc1ccc([C@H](CC(=O)O)N2CC(C)(CCCCc3ccc4c(n3)NCCC4)C2=O)cn1` (single isomer, unassigned) [Example 178], the IC50 was 102 nM. This IC50 lies about 4.4-fold lower than the previous one. Then `COc1ccc([C@H](CC(=O)O)N2CC(CCCc3ccc4c(n3)NCCC4)C2=O)cc1F` (single isomer, unassigned) [Example 179], with 55 nM; and `COc1ccc([C@H](CC(=O)O)N2CC(CCCc3ccc4c(n3)NCCC4)C2=O)cc1F` (single isomer, unassigned) [Example 180], with 17 nM; and `COc1ccc([C@H](CC(=O)O)N2CC(CCCc3ccc4c(n3)NCCC4)C2=O)cn1` (single isomer, unassigned) [Example 181], with 25 nM. With `COc1ccc([C@H](CC(=O)O)N2CC(CCCc3ccc4c(n3)NCCC4)C2=O)cn1` (single isomer, unassigned) [Example 182] the figure was 5.7 nM; with `COc1ccc([C@H](CC(=O)O)N2CC(c3ccc(-c4ccc5c(n4)NCCC5)cc3)C2=O)cn1` (single isomer, unassigned) [Example 183], 2 nM. Compound `COc1ccc([C@H](CC(=O)O)N2CC(c3ccc(-c4ccc5c(n4)NCCC5)cc3)C2=O)cn1` (single isomer, unassigned) [Example 184] gave an IC50 of 4 nM.

Compound `Cc1cc(C)c(S(=O)(=O)N[C@@H](CN2CC(CCCc3ccc4c(n3)NCCC4)C2=O)C(=O)O)c(C)c1` (single isomer, unassigned) [Example 185] showed an IC50 of 18 nM. `Cc1cc(C)c(S(=O)(=O)N[C@@H](CN2CC(CCCc3ccc4c(n3)NCCC4)C2=O)C(=O)O)c(C)c1` (single isomer, unassigned) [Example 186] gave an IC50 of 0.61 nM. Then `O=C(O)[C@H](CN1CC(CCCc2ccc3c(n2)NCCC3)C1=O)NS(=O)(=O)c1ccc(F)cc1` (single isomer, unassigned) [Example 187], with 24 nM; and `O=C(O)[C@H](CN1CC(CCCc2ccc3c(n2)NCCC3)C1=O)NS(=O)(=O)c1ccc(F)cc1` (single isomer, unassigned) [Example 188], with 3.34 nM; and `COc1ccc(C(NC(=O)C2CC(CCc3ccc4c(n3)NCCC4)C2)C(C)(C)C(=O)O)cn1` (single isomer, unassigned) [Example 189, 3-(6-methoxypyridin-3-yl)-2,2-dimethyl-3-(3-(2-(5,6,7,8-tetrahydro-1,8-naphthyridin-2-yl)ethyl)cyclobutane-1-carboxamido)propanoic acid], with 5000 nM.

`COc1ccc(C(NC(=O)C2CC(CCc3ccc4c(n3)NCCC4)C2)C(C)(C)C(=O)O)cn1` (single isomer, unassigned) [Example 190, 3-(6-methoxypyridin-3-yl)-2,2-dimethyl-3-(3-(2-(5,6,7,8-tetrahydro-1,8-naphthyridin-2-yl)ethyl)cyclobutane-1-carboxamido)propanoic acid] registered an IC50 of 3300 nM. Then `O=C(O)CC(NC(=O)[C@H]1C[C@H](CCc2ccc3c(n2)NCCC3)C1)c1cnc(C(F)(F)F)nc1` (single isomer, unassigned) [Example 193, 3-(trans-3-(2-(5,6,7,8-Tetrahydro-1,8-naphthyridin-2-yl)ethyl)cyclobutane-1-carboxamido)-3-(2-(trifluoromethyl)pyrimidin-5-yl)propanoic acid], with 5.7 nM; and `O=C(O)CC(NC(=O)[C@H]1C[C@H](CCc2ccc3c(n2)NCCC3)C1)c1cnc(C(F)(F)F)nc1` (single isomer, unassigned) [Example 194, 3-(trans-3-(2-(5,6,7,8-Tetrahydro-1,8-naphthyridin-2-yl)ethyl)cyclobutane-1-carboxamido)-3-(2-(trifluoromethyl)pyrimidin-5-yl)propanoic acid], with 21 nM; and `COc1ccc(C(CC(=O)O)C2CC(CCCCc3ccc4c(n3)NCCC4)C2)cn1` (single isomer, unassigned; diastereomer a) [Example 139, 3-(6-Methoxypyridin-3-yl)-3-(3-(4-(5,6,7,8-tetrahydro-1,8-naphthyridin-2-yl)butyl)cyclobutyl)propanoic acid (Diastereomer A)], with 26 nM. With `COc1ccc(C(CC(=O)O)C2CC(CCCCc3ccc4c(n3)NCCC4)C2)cn1` (single isomer, unassigned; diastereomer b) [Example 140, 3-(6-Methoxypyridin-3-yl)-3-(3-(4-(5,6,7,8-tetrahydro-1,8-naphthyridin-2-yl)butyl)cyclobutyl)propanoic acid (Diastereomer B)], the IC50 stood at 7.7 nM. With `O=C(O)C[C@H](NC(=O)C1CC2(C1)CN(C(=O)CCc1ccc3c(n1)NCCC3)C2)c1cc(Cl)cc(Cl)c1` [Example 1, (S)-3-(3,5-Dichlorophenyl)-3-(2-(3-(5,6,7,8-tetrahydro-1,8-naphthyridin-2-yl)propanoyl)-2-azaspiro[3.3]heptane-6-carboxamido)propanoic acid, TFA] the figure was 420 nM; with `COc1ccc([C@H](CC(=O)O)NC(=O)C2CC3(C2)CN(CCc2ccc4c(n2)NCCC4)C3)cn1` [Example 2, (S)-3-(6-Methoxypyridin-3-yl)-3-(2-(2-(5,6,7,8-tetrahydro-1,8-naphthyridin-2-yl)ethyl)-2-azaspiro[3.3]heptane-6-carboxamido)propanoic acid, 3TFA], 13 nM. Then `O=C(O)C[C@H](NC(=O)C1CC2(C1)CN(CCCc1ccc3c(n1)NCCC3)C2)c1cc(Cl)cc(Cl)c1` [Example 3, (S)-3-(3,5-Dichlorophenyl)-3-(2-(3-(5,6,7,8-tetrahydro-1,8-naphthyridin-2-yl)propyl)-2-azaspiro[3.3]heptane-6-carboxamido)propanoic acid], with 21 nM; and `Cc1nc2c(cc1CCN1CC3(CC(C(=O)N[C@@H](CC(=O)O)c4cc(Cl)cc(Cl)c4)C3)C1)CCCN2` [Example 4, (S)-3-(3,5-Dichlorophenyl)-3-(2-(2-(2-methyl-5,6,7,8-tetrahydro-1,8-naphthyridin-3-yl)ethyl)-2-azaspiro[3.3]heptane-6-carboxamido)propanoic acid], with 25 nM. The compound `Cc1cc(C)c(S(=O)(=O)N[C@@H](CNC(=O)C2CC3(CC(CCc4ccc5c(n4)NCCC5)C3)C2)C(=O)O)c(C)c1` (stereo partly drawn) [Example 5, (S)-3-(6-(2-(5,6,7,8-Tetrahydro-1,8-naphthyridin-2-yl)ethyl)spiro[3.3]heptane-2-carboxamido)-2-((2,4,6-trimethylphenyl)sulfonamido)propanoic acid] yielded an IC50 of 1.3 nM. Take `O=C(N[C@@H](CC(=O)N1CC(CCc2ccc3c(n2)NCCC3)C1)C(=O)O)OCc1ccccc1` [Example 7, (S)-2-(((Benzyloxy)carbonyl)amino)-4-oxo-4-(3-(2-(5,6,7,8-tetrahydro-1,8-naphthyridin-2-yl)ethyl)azetidin-1-yl)butanoic acid]: the IC50 is 64 nM. With `O=C(N[C@@H](CCN1CC2(CC(CCc3ccc4c(n3)NCCC4)C2)C1)C(=O)O)OCc1ccccc1` [Example 8, (S)-2-(((Benzyloxy)carbonyl)amino)-4-(6-(2-(5,6,7,8-tetrahydro-1,8-naphthyridin-2-yl)ethyl)-2-azaspiro[3.3]heptan-2-yl)butanoic acid] the figure was 2 nM. Then `O=C(N[C@@H](COC1CN(CCCc2ccc3c(n2)NCCC3)C1)C(=O)O)OCc1ccccc1` [Example 10, N-((Benzyloxy)carbonyl)-O-(1-(3-(5,6,7,8-tetrahydro-1,8-naphthyridin-2-yl)propyl)azetidin-3-yl)-L-serine], with 0.8 nM; and `COc1ccc([C@H](CC(=O)O)NC2CN(CCCc3ccc4c(n3)NCCC4)C2)cn1` [Example 11, (S)-3-(6-Methoxypyridin-3-yl)-3-((1-(3-(5,6,7,8-tetrahydro-1,8-naphthyridin-2-yl)propyl)azetidin-3-yl)amino)propanoic acid], with 0.5 nM. For `COc1ccc([C@H](CC(=O)O)NC2CN(CCc3ccc4c(n3)NCCC4)C2)cn1` [Example 12, (S)-3-(6-Methoxypyridin-3-yl)-3-((1-(2-(5,6,7,8-tetrahydro-1,8-naphthyridin-2-yl)ethyl)azetidin-3-yl)amino)propanoic acid], the 50% inhibitory concentration (IC50) was determined as 3.6 nM. This IC50 lies about 7.2-fold higher than the previous one.
